In brackets after ≈: the same amount, converted by molar mass. Like-named read-outs stand apart in the source and are kept apart here.
Key:
E. coli LpxC = E. coli LpxC (Escherichia coli (strain K12), UniProt P0A725); assay: in vitro substrate deacetylation assay for inhibition of LpxC (ADDA analysis); format: biochemical; settings: 5 nM E. coli LpxC, 2.5 μM substrate, 1 hour at room temperature
Protocol: (§1) Exemplary compounds from the above Examples were tested for ability to inhibit LpxC activity using an in vitro substrate deacetylation assay with ADDA™ analysis. Assay procedures and results are described below.
Dilutions of test compound were pre-incubated with 5 nM P. aeruginosa or E. coli LpxC for 10 minutes at room temperature in 50 mM NaH2PO4, 500 mM sucrose, 0.2 mg/mL BSA, pH 7.2 and <1% DMSO. Reactions were initiated by the addition of 2× substrate (UDP-3-O—(R-3-hydroxydecanoyl)-N-acetylglucosamine, Carbosynth Ltd, UK, for P. aeruginosa LpxC and UDP-3-O—(R-3-hydroxymyristoyl)-N-acetylglucosamine, BOC Sciences, USA, for E. coli LpxC), in 50 mM NaH2PO4, 0.5 mg/mL BSA, pH 7.2, to a final concentration of 2.5 μM. Reactions proceeded for 1 hour at room temperature prior to quenching with and equal volume of 2% acetic acid.
For ADDA™ analysis, an aliquot of assay sample was withdrawn from each well of the 384-well plate and applied to a Hypercarb cartridge (Optimize Technologies, USA) under conditions designed to retain analytes of interest. Analytes were eluted using 1:1:2 acetone:acetonitrile:water containing 5 mM ammonium acetate then analysed by triple-quadrupole mass spectrometry. Mass spectrometry was carried out using electrospray ionization in negative ion mode. Daughter ion peaks representing detected substrate (P. aeruginosa: parent Q1 mass=775.8 amu, daughter Q3 mass=384.7 amu E. coli: parent Q1 mass=833.0 amu, daughter Q3 mass=385.0 amu, collision energy=analyte specific, dwell time=50 ms) were identified using a multiple-reaction monitoring protocol.
Total activity (0% inhibition) was obtained from reactions containing no compound, and 100% inhibition is defined as reactions in the presence of 1 μM CHIR-090 (N-[(1S,2R)-2-hydroxy-1-[(hydroxyamino)carbonyl]propyl]-4-[2-[4-(4-morpholinylmethyl)phenyl]ethynyl]-benzamide). For IC50 determinations, peak areas of the substrate and product were compared to compute the proportion of substrate reacted by the LpxC enzyme at each compound concentration. The fractional activity was converted to percentage inhibition and plotted against compound concentration in ActivityBase™ and fit using a four-parameter logistic using non-linear regression to yield the IC50 value.

P. aeruginosa LpxC = P. aeruginosa LpxC (Pseudomonas aeruginosa (strain ATCC 15692 / DSM 22644 / CIP 104116 / JCM 14847 / LMG 12228 / 1C / PRS 101 / PAO1), UniProt P47205); assay: biochemical; format: biochemical; settings: 5 nM P. aeruginosa LpxC, 2.5 μM substrate, 1 hour at room temperature
Protocol: as §1
For ADDA™ analysis, an aliquot of assay sample was withdrawn from each well of the 384-well plate and applied to a Hypercarb cartridge (Optimize Technologies, USA) under conditions designed to retain analytes of interest. Analytes were eluted using 1:1:2 acetone:acetonitrile:water containing 5 mM ammonium acetate then analysed by triple-quadrupole mass spectrometry. Mass spectrometry was carried out using electrospray ionization in negative ion mode.
For IC50 determinations, peak areas of the substrate and product were compared to compute the proportion of substrate reacted by the LpxC enzyme at each compound concentration.

[1] = test system: E. coli BW25113 isogenic mutant deficient in acrA mediated efflux; assay: broth microdilution minimum inhibition concentration assay; format: cell-based; settings: Escherichia coli, BW25113, read-out: E. coli KO MIC
Protocol: (§2) Exemplary compounds from the above Examples were tested to determine their minimum inhibitory concentration (MIC) for exemplary strains of Eschericia and Pseudomonas bacteria using broth microdilution methods. Assay procedures and results are described below.
(§3) Broth microdilution assays were conducted according to Clinical and Laboratory Standards Institute guidelines (CLSI, M07-A11: Clinical and Laboratory Standards Institute. Methods for Dilution Antimicrobial Susceptibility Tests for Bacteria that Grow Aerobically; Approved Standard—11th Edition. Wayne, PA: CLSI, 2018.). Briefly, a 0.5 McFarland standard suspension was made from bacterial isolates on non-selective, solid media. The inocula were adjusted to give a bacterial concentration of 1×10^6 CFU/mL. Serial doubling-dilutions of each compound were prepared in cation-adjusted Mueller-Hinton broth (Sigma-Aldrich) in 96-well microdilution plates. A 50 μL aliquot of the inoculum was added to each microdilution plate and, within 15 minutes, incubated at 37° C. in air for 16-20 h. […] The test was controlled by the determination of piperacillin MIC against both E. coli ATCC 25922 and P. aeruginosa ATCC 27853 and ensuring accordance with the ranges published in CLSI supplementary document M100 (CLSI, M100Ed29: Clinical and Laboratory Standards Institute. Performance Standards for Antimicrobial Susceptibility Testing, 29th Edition. Wayne, PA: CLSI, 2018.).
(§4) Multiple enterobacteriaceae strains were tested, including E. coli ATCC 25922 and K. pneumoniae ATCC 43816. WT E. coli BW25113 was tested with an isogenic mutant deficient in acrA mediated efflux by clean deletion. WT P. aeruginosa PAO1 was tested with an isogenic mutant deficient in MexA mediated efflux by clean deletion.
(§5) Experimental results are provided in Table 4, which provides MIC values for wild-type E. coli BW25113 (“E. coli WT MIC”), an isogenic mutant deficient in acrA mediated efflux by clean deletion (“E. coli KO MIC”), wild-type P. aeruginosa PAO1 (“P. aeruginosa WT MIC”), and an isogenic mutant deficient in MexA mediated efflux by clean deletion (“[…]”).

[2] = test system: P. aeruginosa PAO1 isogenic mutant deficient in MexA mediated efflux; assay: as above; format: cell-based; settings: Pseudomonas aeruginosa, PAO1, read-out: P. aeruginosa KO MIC
Protocol: as §2, §3, §4, §5

[3] = test system: wild-type E. coli BW25113; assay: as above; format: cell-based; settings: Escherichia coli; wild-type E. coli BW25113, 37° C. 16-20 h; read-out: E. coli WT MIC
Protocol: as §2, §3, §4, §5

[4] = test system: wild-type P. aeruginosa PAO1; assay: as above; format: cell-based; settings: Pseudomonas aeruginosa
Protocol: as §2, §3, §4, §5

[5] = PAO1, read-out: P. aeruginosa WT MIC

Sequence of E. coli LpxC (P0A725 whole entry): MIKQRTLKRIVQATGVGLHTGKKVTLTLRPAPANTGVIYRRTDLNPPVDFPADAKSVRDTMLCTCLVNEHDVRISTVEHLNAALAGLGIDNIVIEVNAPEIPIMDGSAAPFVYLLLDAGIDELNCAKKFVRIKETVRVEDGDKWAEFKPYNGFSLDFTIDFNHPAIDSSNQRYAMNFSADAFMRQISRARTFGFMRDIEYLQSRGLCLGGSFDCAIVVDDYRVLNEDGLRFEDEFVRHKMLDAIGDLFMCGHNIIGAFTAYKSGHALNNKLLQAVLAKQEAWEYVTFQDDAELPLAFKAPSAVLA

| SMILES | IC50 (E. coli LpxC) [nM] | IC50 (P. aeruginosa LpxC) [nM] | MIC [1] [µM] | MIC [2] [µM] | MIC [3] [µM] | MIC [4, 5] [µM] | MIC ([4]; wild-type P. aeruginosa PAO1, 37° C. 16-20 h, read-out: P. aeruginosa WT MIC) [µM] |
| --- | --- | --- | --- | --- | --- | --- | --- |
| CC(C)C(=O)N1C[C@H](NC(=O)[C@@H]2CC(F)(F)CN2)C[C@@H]1C(=O)NCc1ccc(C#CC#CC2CC2)cc1 [Example 9G] | 500 to 2500 | 50 to 100 | 20 to 100 (≈ 10.2 to 51.1 µg/mL) | 20 to 100 (≈ 10.2 to 51.1 µg/mL) | > 100 | > 100 | – |
| O=C(O)CN1C[C@H](NC(=O)[C@@H]2C[C@H](F)CN2)C[C@@H]1C(=O)NCc1ccc(C#CC#CC2CC2)cc1 [Example 9AN, 2-((2R,4R)-2-((4-(Cyclopropylbuta-1,3-diyn-1-yl)benzyl)carbamoyl)-4-((2S,4S)-4-fluoropyrrolidine-2-carboxamido)pyrrolidin-1-yl)acetic acid] | < 500 | 50 to 100 | > 100 | 20 to 100 (≈ 9.61 to 48.1 µg/mL) | > 100 | > 100 | – |
| CC(C)C(=O)N1C[C@H](NC(=O)[C@@H]2C[C@H](C#N)CN2)C[C@@H]1C(=O)NCc1ccc(C#CC#CC2CC2)cc1 [Example 9AE] | 500 to 2500 | < 50 | > 100 | 20 to 100 (≈ 9.99 to 50 µg/mL) | > 100 | – | > 100 |
| CC(C)C(=O)N1C[C@H](NC(=O)[C@@H]2C[C@H](O)CN2)C[C@@H]1C(=O)NCc1ccc(C#Cc2ccc(CN3CCOCC3)cc2)cc1 [Example 9T, (2R,4R)-4-((2S,4S)-4-Hydroxypyrrolidine-2-carboxamido)-1-isobutyryl-N-(4-((4-(morpholinomethyl)phenyl)ethynyl)benzyl)pyrrolidine-2-carboxamide] | 2500 to 10000 | 100 to 1000 | > 100 | > 100 | > 100 | > 100 | – |
| C[C@H](CN)C(=O)N1C[C@H](NC(=O)[C@@H]2C[C@H](F)CN2)C[C@@H]1C(=O)NCc1ccc(C#CC#CC2CC2)cc1 [Example 9N] | 500 to 2500 | 50 to 100 | > 100 | > 100 | > 100 | > 100 | – |
| CC(C)C(=O)N1C[C@H](NC(=O)[C@H]2NCC[C@@H]2O)C[C@@H]1C(=O)NCc1ccc(C#CC#CC2CC2)cc1 [Example 9AB] | 500 to 2500 | < 50 | 20 to 100 (≈ 9.81 to 49.1 µg/mL) | 20 to 100 (≈ 9.81 to 49.1 µg/mL) | > 100 | > 100 | – |
| CC(C)C(=O)N1C[C@H](NC(=O)[C@@H]2C[C@H](O)CN2)C[C@@H]1C(=O)NCc1ccc(C#CC#CC2CC2)cc1 [Example 9U] | – | – | > 100 | 20 to 100 (≈ 9.81 to 49.1 µg/mL) | > 100 | > 100 | – |
| CC(C)C(=O)N1C[C@H](NC(=O)[C@@H]2C[C@H](F)CN2)C[C@@H]1C(=O)NCc1ccc(C#Cc2ccccc2)cc1 [Example 9A] | – | – | 20 to 100 (≈ 10.1 to 50.5 µg/mL) | 20 to 100 (≈ 10.1 to 50.5 µg/mL) | > 100 | > 100 | – |
| CC(C)C(=O)N1C[C@H](NC(=O)[C@@H]2C[C@@H](F)CN2)C[C@@H]1C(=O)NCc1ccc(C#Cc2ccccc2)cc1 [Example 9E] | – | – | > 100 | > 100 | > 100 | > 100 | – |
